Test [1] has as its target NL20 human bronchial epithelial cells expressing human Z-AAT (Homo sapiens (Human), UniProt P01009, E366K). In words: AAT Function Assay (MSD Assay NL20-SI Cell Line). The class given is cell-based. The settings on record: functionally active AAT (AAT-hNE complex, MSD) in supernatant of NL20 cells expressing human Z-AAT; read-out: NL20 Functional EC50. As for the experimental part: A. AAT Function Assay (MSD Assay NL20-SI Cell Line)
Alpha-1 antitrypsin (AAT) is a SERpIN (serine protease inhibitor) that inactivates enzymes by binding to them covalently. This assay measured the amount of functionally active AAT in a sample in the presence of the disclosed Compounds 1-227 by determining the ability of AAT to form an irreversible complex with human neutrophil Elastase (hNE). In practice, the sample (cell supernatant, blood sample, or other) was incubated with excess hNE to allow AAT-Elastase complex to be formed with all functional AAT in the sample. This complex was then captured to a microplate coated with an anti-AAT antibody. The complex captured to the plate was detected with a labeled anti-Elastase antibody and quantitated using a set of AAT standards spanning the concentration range present in the sample. Meso Scale Discovery (MSD) plate reader, Sulfo-tag labeling, and microplates were used to provide high sensitivity and wide dynamic range.
Instrument(S): • Meso Sector S600 • Bravo • Washer dispenser • Multidrop Combi
Day 1 Cell Culture • 1. Harvest NL20 human bronchial epithelial cells expressing human Z-AAT in OptiMEM™ containing Pen/Strep (P/S) • 2. Seed at 16,000 cells/well in 30 μL (384 well plate) • 3. Centrifuge plates briefly up to speed (1200 rpm) and place into 37° C. incubator overnight
Day 2: Compound Addition and Coating Plates with Capture Antibody
Compound Addition: • 1. Dispense 40 μL of OptiMEM™ (P/S) with doxycycline (1:1000 stock=0.1 μM final) to each well of the compound plate using a multidrop Combi in hood • 2. Remove cell plate from incubator, flip/blot and take immediately to Bravo to transfer compounds • 3. Return plates to incubator overnight
Coat MSD Plates • 1. Dilute capture antibody (Polyclonal Goat anti-AAT) to 5 μg/mL (1:200) in PBS (no BSA). • 2. Dispense 25 μL of diluted capture antibody into all wells of MSD 384-well High Bind plate using the Multidrop equipped with a standard cassette. • 3. Incubate overnight at 4° C.
Prepare Blocker A (BSA) Solutions • 1. Prepare solution of 5% MSD Blocker A (BSA) following the manufacturer's instructions. • 2. Further dilute the 5% MSD Blocker A in PBS to 1% (Blocker A) as needed.
Block Plates • 1. Wash plate 1× with 50 μL Wash buffer (PBS+0.5% Tween 20), and adds 35 μL 5% Block A buffer to block non-specific binding on washer dispenser • 2. Rotate plates on shaker for 1 hour at 600 rpm
Prepare M-AA T Standards • 1. Dilute M-AAT stock to 1.6 μg/mL in 1% BSA Blocker A (Stock in −70° C.); then prepare 12×1:2 serial dilutions in 1% Blocker A • 2. The top starting final concentration on MSD plate is 320 ng/mL. These dilutions correspond to a final concentration of 320, 160, 80, 40, 20, 10, 5, 2.5, 1.25, 0.625, 0.312, 0.156 ng/mL.
Dilution Plate • 1. Add 80 μL of 1% Assay buffer to all wells except columns 1/24 (standards) with Multidrop Combi • 2. Add diluted standards to columns 1 and 24 • 3. Centrifuge dilution plates 1200 rpm briefly
Cell Plate • 1. Aspirate columns which will have the standards from the cell plates in the hood using 16-pin aspirator
Prepare Human Neutrophil Elastase (hNE) • 1. Prepare 1 μg/mL Human Neutrophil Elastase by diluting in 1% Blocker A. • a. Small 100 μg vial—add 1 mL PBS (100 μg/mL) • i. This can then be diluted 1:100 in 1% Assay Buffer for a final 1 μg/mL concentration
MSD—add hNE (20 μL/well) • 1. After the MSD plate has blocked for at least 1 hour, wash plate 1× with 50 μL Wash buffer (PBS+0.5% Tween 20) and then add 20 μL hNE to each well
Bravo—Cell Plate—Dilution Plate—MSD Plate
Using the Bravo aspirate 10 μL from the cell plate, transfer to the dilution plate (9-fold dilution) • 1. Mix 25 μL 3×, then aspirate 5 μL, transfer to MSD plate (5-fold dilution) • 2. Mix 10 μL 3×. Total dilution is 45 fold. • 3. Shake plates at 600 rpm for 1.5 hours
Add Functional Detection hNE Antibody • 1. Wash plate 1× with wash buffer • 2. […]

In test [2] the target is purified Z-AAT protein from human plasma (Homo sapiens (Human), UniProt P01009, E366K). Kind of test: Biochemical Assay (Z-AAT Elastase Activity Assay). The settings on record: purified Z-AAT pre-incubated with compound 1 hour, then human neutrophil elastase and fluorescent substrate. From the text: B. Biochemical Assay (Z-AAT Elastase Activity Assay)
Sequence of purified Z-AAT protein from human plasma (P01009 25-418 E366K limits assumed): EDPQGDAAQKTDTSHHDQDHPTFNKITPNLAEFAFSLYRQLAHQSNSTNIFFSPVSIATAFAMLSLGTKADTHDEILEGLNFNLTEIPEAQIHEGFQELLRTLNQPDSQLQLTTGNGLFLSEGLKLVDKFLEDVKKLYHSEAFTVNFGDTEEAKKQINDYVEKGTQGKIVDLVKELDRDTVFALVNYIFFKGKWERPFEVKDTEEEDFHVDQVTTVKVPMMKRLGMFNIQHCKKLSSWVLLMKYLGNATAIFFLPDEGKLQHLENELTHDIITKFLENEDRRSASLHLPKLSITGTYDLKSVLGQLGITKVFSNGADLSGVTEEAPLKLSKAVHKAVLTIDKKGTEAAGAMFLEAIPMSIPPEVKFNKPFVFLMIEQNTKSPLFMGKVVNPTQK
This assay measured the modulation of Compounds 1-227 on Z-AAT SERpIN activity using purified Z-AAT protein and purified human neutrophil elastase (hNE). Normally, when active monomeric Z-AAT encounters a protease such as trypsin or elastase, it forms a 1:1 covalent “suicide” complex in which both the AAT and protease are irreversibly inactivated. However, compounds binding to Z-AAT can lead to a decrease in SERpIN activity. In such cases, when a protease encounters compound-bound Z-AAT, the protease cleaves and inactivates Z-AAT without itself being inactivated.
Reagents • PBS buffer (media prep)+0.01% BRIJ35 detergent (Calbiochem catalog #203728) Opti-MEM media (Fisher 11058-021) • Human neutrophil elastase (hNE, Athens Research #16-14-051200) • 3.4 μM stock (0.1 mg/mL) prepared in 50 mM Na Acetate, pH 5.5, 150 mM NaCl, stored at −80° C. • Elastase substrate V (ES V, fluorescent peptide substrate MeOSuc-Ala-Ala-Pro-Val-AMC, Calbiochem catalog #324740) • 20 mM stock in DMSO, stored at −20° C. • Purified Z-AAT protein from human plasma; • 12.9 μM (0.67 mg/mL) Z-AAT Vertex Cambridge Sample 4942, from patient • #061-SSN, stored at −80 C
Plates • Corning 4511 (384 well black low volume)
Instruments • PerkinElmer® EnVision™
Pre-Incubation of Z-AAT with Compounds • 1. 7.5 μL of Z-AAT (20 nM) was incubated with compounds 1-227 in a GCA plate for 1 hour at room temperature
Addition of hNE • 1. 7.5 ul of HNE solution (3 nM in PBS+0.01% BRIJ35) added into GCA plate • 2. Incubate plate for 30 minutes to allow Z-AAT/HNE suicide complex formation.
Addition of Substrate and Read Plate on PE Envision • 1. 7.5 μL of substrate (300 μM solution of elastase substrate (ES V) in PBS+0.01% BRIJ35) dispensed per well into GCA plate • 2. Immediately read on Envision.

Usually EC50 stands for the concentration at which the effect is half-maximal. The IC50 is the concentration that gives 50% inhibition.

Sequence of NL20 human bronchial epithelial cells expressing human Z-AAT (P01009 25-418 E366K limits assumed): as above

On to `Cc1cc(-n2c(C3CCOCC3)c(C[C@H]3CC[C@H](C(=O)O)CC3)c3cc(O)ccc32)ccc1F` [Compound 5], for which the EC50 in test [1] was above 2000 nM. In addition, in test [2], the IC50 was above 30 µM.
The like results for `Cc1cc(-n2c(C(C)C)c(C3CC(C(=O)O)C3)c3cc(O)ccc32)ccc1F` (stereo not shown) [Compound 6] were, in that order, above 2000 nM and above 30 µM.
The like results for `Cc1cc(-n2c(C3CCOCC3)c(C[C@H]3C[C@H](C(=O)O)C3)c3cc(O)ccc32)ccc1F` [Compound 7] were, in that order, above 2000 nM and above 30 µM.
In the case of `Cc1cc(-n2c(C3CCOCC3)c(C[C@H]3C[C@@H](C(=O)O)C3)c3cc(O)ccc32)ccc1F` [Compound 8], the EC50 in test [1] is 500 to 2000 nM. Besides, in test [2], the half-maximal inhibitory concentration (IC50) is above 30 µM.
As for `Cc1cc(-n2c(C3CCOCC3)c([C@H]3C[C@@](C(=O)O)(C(F)(F)F)C3)c3cc(O)ccc32)ccc1F` [Compound 9], the half-maximal effective concentration (EC50) in test [1] was in the range of 500 to 2000 nM. Moreover, the half-maximal inhibitory concentration (IC50) in test [2] was above 5 µM.
Take `Cc1cc(-n2c(C3CCOCC3)c(CCC(F)(F)C(=O)O)c3cc(O)ccc32)ccc1F` [Compound 10]: in test [1], the EC50 was above 2000 nM. Moreover, the IC50 in test [2] is above 30 µM.
The like results for `Cc1cc(-n2c(C3CCOCC3)c([C@H]3CC4(C[C@H](C(=O)O)C4)C3)c3cc(O)ccc32)ccc1F` (stereo partly shown) [Compound 11] were, in that order, below 500 nM and above 30 µM.
The corresponding values for `Cc1cc(-n2c(C3CCOCC3)c([C@H]3CC4(C[C@H](C(=O)O)C4)C3)c3cc(O)ccc32)ccc1F` (stereo partly shown) [Compound 12] are below 500 nM and above 5 µM.
In the case of `Cc1cc(-n2c(C3CCOCC3)c(CC3(C(=O)O)CCC3)c3cc(O)ccc32)ccc1F` [Compound 13], in test [1], the concentration for a half-maximal effect (EC50) is above 2000 nM. The IC50 in test [2] was above 30 µM.
For the molecule `Cc1cc(-n2c(C3CCOCC3)c(CCC(C)(C)C(=O)O)c3cc(O)ccc32)ccc1F` [Compound 14], the EC50 in test [1] lay in the range of 500 to 2000 nM. Moreover, the IC50 in test [2] is above 30 µM.
The corresponding values for `CO[C@]1(C(=O)O)C[C@H](c2c(C3CCOCC3)n(-c3ccc(F)c(C)c3)c3ccc(O)cc32)C1` [Compound 15] are above 2000 nM and above 30 µM.
The like results for `CO[C@]1(C(=O)O)C[C@@H](c2c(C3CCOCC3)n(-c3ccc(F)c(C)c3)c3ccc(O)cc32)C1` [Compound 16] were, in that order, above 2000 nM and above 30 µM.
With `Cc1cc(-n2c(C3CCOCC3)c([C@H]3C[C@H](C(=O)O)C3)c3cc(O)ccc32)ccc1F` [Compound 20], the EC50 in test [1] is above 2000 nM. In addition, in test [2], the IC50 was above 30 µM.
The corresponding values for `Cc1cc(-n2c(C3CCOCC3)c([C@H]3C[C@@H](C(=O)O)C3)c3cc(O)ccc32)ccc1F` [Compound 21] are above 2000 nM and above 30 µM.
The corresponding values for `Cc1cc(-n2c(C(C)C)c([C@H]3C[C@](C)(C(=O)O)C3)c3c(F)c(O)c(F)cc32)ccc1F` [Compound 22] are 500 to 2000 nM and 2 to 5 µM.
The like results for `Cc1cc(-n2c(C(C)C)c([C@H]3C[C@@](C)(C(=O)O)C3)c3c(F)c(O)c(F)cc32)ccc1F` [Compound 23] were, in that order, 500 to 2000 nM and above 30 µM.
For the molecule `O=C(O)[C@H]1CC[C@@H](c2c(C3CCOCC3)n(-c3ccc(F)c(Cl)c3)c3ccc(O)cc32)CC1` [Compound 24], the EC50 in test [1] was above 2000 nM. Moreover, in test [2], the 50% inhibitory concentration (IC50) was above 30 µM.
Turning to `Cc1cc(-n2c(C3CCOCC3)c(CC3CC(C(=O)O)C3)c3cc(O)ccc32)ccc1F` (stereo not shown) [Compound 25], the EC50 in test [1] lay in the range of 500 to 2000 nM. Besides, in test [2], the IC50 is above 30 µM.
The like results for `Cc1cc(-n2c(C(C)C)c(CC(C)C(=O)O)c3cc(O)ccc32)ccc1F` (stereo not shown) [Compound 26] were, in that order, above 2000 nM and above 30 µM.
The like results for `C[C@]1(C(=O)O)C[C@H](c2c(C3CCOCC3)n(-c3ccc(F)c(Cl)c3)c3ccc(O)cc32)C1` [Compound 27] were, in that order, 500 to 2000 nM and above 5 µM.
The like results for `C[C@]1(C(=O)O)C[C@@H](c2c(C3CCOCC3)n(-c3ccc(F)c(Cl)c3)c3ccc(O)cc32)C1` [Compound 28] were, in that order, above 2000 nM and above 30 µM.
Regarding `CC(C)(CCc1c(C2CCOCC2)n(-c2ccc(F)c(Cl)c2)c2ccc(O)cc12)C(=O)O` [Compound 29], the concentration giving a half-maximal response (EC50) in test [1] fell in the range of 500 to 2000 nM. Moreover, the IC50 in test [2] was above 30 µM.
The corresponding values for `CC(C)(CCc1c(C2CCOCC2)n(-c2ccc(F)cc2)c2ccc(O)cc12)C(=O)O` [Compound 30] are 500 to 2000 nM and above 30 µM.
With `O=C(O)C1CC2(C1)CC(c1c(C3CCOCC3)n(-c3ccc(F)c(Cl)c3)c3ccc(O)cc13)C2` (stereo not shown) [Compound 31], the EC50 in test [1] was below 500 nM. For the same molecule, the concentration for half-maximal inhibition (IC50) in test [2] was above 5 µM.
The like results for `O=C(O)[C@H]1CC2(C1)C[C@H](c1c(C3CCOCC3)n(-c3ccc(F)c(Cl)c3)c3ccc(O)cc31)C2` (stereo partly shown) [Compound 32] were, in that order, below 500 nM and above 5 µM.
The corresponding values for `O=C(O)[C@H]1CC2(C1)C[C@H](c1c(C3CCOCC3)n(-c3ccc(F)c(Cl)c3)c3ccc(O)cc31)C2` (stereo partly shown) [Compound 33] are below 500 nM and above 5 µM.
The like results for `O=C(O)[C@H]1C[C@H](Cc2c(C3CCOCC3)n(-c3ccc(F)c(Cl)c3)c3ccc(O)cc23)C1` [Compound 34] were, in that order, above 2000 nM and above 30 µM.
For the molecule `O=C(O)[C@H]1C[C@@H](Cc2c(C3CCOCC3)n(-c3ccc(F)cc3)c3ccc(O)cc23)C1` [Compound 35], the EC50 in test [1] was above 2000 nM. In test [2], the IC50 is above 30 µM.
As for `O=C(O)[C@H]1C[C@H](Cc2c(C3CCOCC3)n(-c3ccc(F)cc3)c3ccc(O)cc23)C1` [Compound 36], in test [1], the concentration giving a half-maximal response (EC50) is above 2000 nM. Moreover, the 50% inhibitory concentration (IC50) in test [2] is above 30 µM.
